The values below come from publication PMC10150366, “Discovery of an In Vivo Chemical Probe for BCL6 Inhibition by Optimization of Tricyclic Quinolinones” (Journal of Medicinal Chemistry, 2023).

The target in one data set is human BCL6 BTB domain (Homo sapiens, UniProt P41182). In words: BCL6 TR-FRET assay. The class given is binding. As to conditions: for BCL6 TR-FRET pIC50 mean / IC90: Table S1; for IC90: read-out: BCL6 TR-FRET IC90 Geometric Mean. As to the method: 1. Supplementary experimental: protein production, purification and crystallography 1.1 BCL6 constructs used for assays and crystallography […]
cleavage site. For the TR-FRET assay, the Trx-6His-HRV3C-BCL6 protein construct was used without cleaving the tag, as a 6His was needed to bind to the anti-6His-Terbium antibody. […]
For both plasmid constructs described above, transformed BL21-AI E. coli cells were grown in LB media […]
Expression was carried out at 18 °C for 18 hours. Cells were harvested by centrifugation (5500 g for 30 minutes at 4 °C) and stored at -80 °C.
Cells were re-suspended in a buffer composed of 20 mM Tris pH 8, 250 mM NaCl, 1 mM MgCl2, 0.5 mM […]
lysed by sonication followed by centrifugation at 21,000 g for 45 minutes at 4 °C. […]
ResourceQ and gel filtration using a HiLoad 26/60 Superdex75 column in a buffer containing 20 mM HEPES […]
The final protein was assessed for purity and molar mass by SDS-PAGE and high-resolution mass spectrometry, respectively.
For the uncleaved Trx-6His-HRV3C-BCL6 protein construct to be used in TR-FRET, the protein was directly eluted from the HisTrap FF column without HRV-3C treatment, and submitted to Superdex75 gel filtration […]
Test compounds in DMSO or DMSO alone […]
concentration in 0.7% v/v DMSO final. […]
On the technique in general: Time-resolved FRET reads energy transfer from a long-lived donor to a nearby acceptor.

Data set [1] has as its target T1, BCL6-SMRT (NCOR2) corepressor protein-protein interaction (Homo sapiens, UniProt P41182).
T1 construct: DNA encoding full length BCL6 and SMRT; expressed in transfected cells; host or cells: HEK293T
In words: NanoBRET cellular assay (HEK293T). The class given is cell-based. As to the method:
Test compounds in DMSO or DMSO alone
concentration in 0.7% v/v DMSO final.
(also called NCOR2) corepressor protein-protein interaction. DNA encoding full length BCL6 and SMRT
fusion proteins BCL6-nanoLuc and SMRT-HaloTag, respectively. HEK293T cells were plated […] in T75
At the time of assay, compounds
dispensing (Labcyte Inc.). Frozen transfected HEK293T cells were thawed, centrifuged and freezing
DMSO final concentration.
After a short centrifugation the
(1st emission filter) / 450-80 nm (2nd emission filter). The % inhibition at each test concentration was
sigmoidal four-parameter logistic fit equation. […]
(In general: In BRET a luciferase serves as donor, and the signal depends on an acceptor being close.)

Another data set has as its system BCL6. As to conditions: OCI-Ly1 cells, cited from earlier work; for DC50: read-out: MSD degrader assay [OCI-Ly1] DC50.
For data set [2] the following is noted: cited from earlier work.
The subject of data set [3] is Caco-2 human colon carcinoma cell line. Conditions: cited from earlier work; for CACO-2 (ER): efflux ratio. (In general: Passage across Caco-2 layers is used to estimate intestinal permeability.)
A short description of data set [4]: Microsomal clearance, mouse liver microsomes. Conditions: for CLint H/M/R: one value given, mouse microsomal clearance per text.
Data set [5] in a line: logD7.4 assay (Chrom log D method). It is filed as physicochemical.
Experimental: Calibration, validation and in-house compounds were prepared at 1mM in 10% DMSO / 90% Trizma solution (100mM Trizma in 75/25 methanol/water). 3 µL standard injections (with needle wash) of all calibration, validation and in-house samples were made onto a Phenomenex Luna C8 column (3µm, 100 x 4.6 mm, 100A, Phenomenex, Torrence, USA). Chromatographic separation at 30°C was carried out using
2 mL/min. The gradient was held at 0:100 water:organic for 0.8 minutes, then returned to the starting conditions of 95:5 water:organic for 0.2 minutes. The column was re-equilibrated for 5 minutes at the
starting conditions prior to the next injection.
Raw data was processed using Agilent Chemstation Rev.C.01.04.
In data set [6] the test system is Caco-2 human colon carcinoma cell line. Conditions: pH 7.4.
Experimental: Caco-2 apparent permeability (Papp) was determined in the Caco-2 human colon carcinoma cell line. Cells
were maintained in DMEM with 10% fetal bovine serum, penicillin, and streptomycin in a humidified
Cells were then plated onto a cell culture assembly plate
(Millipore, UK), and monolayer confluency was tested using a TEER electrode prior to the assay. Media
specified), 1% DMSO) in the appropriate apical and basal donor wells. HBSS buffer alone was placed in
acceptor wells. The Caco-2 plate was incubated for 2 h at 37 °C. Samples from the apical and basolateral
chambers were analyzed using a Waters (Milford, MA, US) TQ-S LC-MS/MS system.
Apparent permeability (Papp) was determined as follows:
𝐏𝐚𝐩𝐩 = 𝐀 (𝐜𝐦𝟐) × 𝐂 (𝛍𝐌) × 𝐑𝐚𝐭𝐞 𝐨𝐟 𝐃𝐢𝐟𝐟𝐮𝐬𝐢𝐨𝐧 (𝛍𝐌.𝐬𝐞𝐜 )
Where Vr = volume of receptical
A = surface area of monolayer
C0 = Initial compound concentration in donor
Data set [7] is described as follows: NMR aqueous solubility assay. Conditions: HEPES buffer, aqueous with cosolvent or surfactant or cyclodextrin.
Experimental: Supplementary experimental: physicochemical assays
0.5 mM TCEP, 10% D2O) was pipetted into the same well and mixed by up-down pipetting 3 times to create a 0.5 mM solution or suspension containing 5% DMSO. It was then separated by centrifugation (1000 rpm
The plate was then sealed and incubated at room temperature for 20 hours,
165 µL of the supernatant was transferred to a 3 mm NMR tube (Bruker, Part No. Z112272) using liquid handler SamplePro Tube SJ S (Bruker). The concentration of the solubilized compound in solubility sample
PBS (pH 7.4) with 1% DMSO-d6).
The detail of the NMR method is as following: NMR data was collected on a Bruker Avance Neo 600 spectrometer equipped with a 5 mm TCI-CryoProbe.
The sweep width was 6.2 ppm with O1P set to 8.8 ppm, and the FID contained 16k time-domain data points. Relaxation delay was set to 20 sec. Water signal was suppressed.
Setting [8] is: supplement, read-out: BCL6 NanoBRET IC50 Geometric Mean.
The mark [9] stands for this setting: geometric mean of at least three replicates, read-out: BCL6 TR-FRET IC50.
[10] abbreviates: Table S2, read-out: BCL6 NanoBRET IC90 individual replicates.
Setting [11] is: geometric mean of at least three replicates, read-out: NanoBRET IC50.
[12] abbreviates: single replicates, Table S2, read-out: BCL6 NanoBRET IC50 individual replicates.

Converted amounts (≈) assume the structure as drawn. “And” between values parts separate entries of the source, which are not always exact repeats. Equal entries are not always repeated. Where two headings read alike, the source gives them in different places.

A word on the IC50: it is the concentration needed to halve the response being measured. Broadly, the DC50 is the concentration at which degradation of the target reaches its halfway point. The term IC90 denotes the concentration at which the effect reaches the 90% level. Usually Papp A→B stands for the apparent permeability from the apical to the basolateral side of a cell layer. Lower therefore signals poor permeation. As usually defined, the efflux ratio is a quotient of directional permeabilities that is used to spot active efflux. As a reminder, the kinetic solubility is solubility judged after dilution from a stock solution rather than from solid. The term microsomal CLint denotes the rate of metabolic loss divided by the concentration. Low readings indicate slow turnover, high ones rapid turnover.

With `C[C@@H]1C[C@H](O)CN(c2ncc(Cl)c(Nc3ccc4c(c3)c3c(c(=O)n4C)OCC(F)(F)[C@H](C4CC4)N3)n2)C1` [CCT373567], the values for the IC50 (on human BCL6 BTB domain (BCL6 TR-FRET IC50 Geometric Mean); in data set [1] (setting [8])) were 2.8 nM and 25.9 nM, respectively. In the data set with BCL6, the DC50 is above 10000 nM. The “Aq. Sol.” value in [2] was 8 µM. Also, the “CACO-2 A-B” value in data set [3] is below 3e-06 cm/s. In data set [3], the “CACO-2 (ER)” value is above 16.

Take “(2S)-10-((2-(8-Acetyl-3,8-diazabicyclo[3.2.1]octan-3-yl)-5-chloropyrimidin-4-yl)amino)-2-cyclopropyl-3,3-difluoro-7-methyl-1,2,3,4-tetrahydro-[1,4]oxazepino[2,3-c]quinolin-6(7H)-one [compound 6]”: at human BCL6 BTB domain, the “BCL6 TR-FRET pIC50 mean” value worked out at 9.0422. The IC90 on human BCL6 BTB domain is 4.6 nM; in data set [1] (Table S2, several values per compound, read-out: BCL6 NanoBRET IC90 Geometric Mean), 189 nM and 229 nM and 239 nM; in data set [1] (setting [10]), 218 nM. Moreover, the half-inhibitory concentration (IC50) was 0.9 nM at human BCL6 BTB domain (setting [9]); 26.9 nM in data set [1] (setting [11]); 27 nM and 30 nM and 24.1 nM in [1] (setting [12]). Also, the “BCL6 NanoBRET pIC50 mean” value in data set [1] (Table S2) is recorded as 7.57. The “CLint H/M/R” value in data set [4] was determined as 214 μLmin^-1mg^-1.

In the case of `Cn1c(=O)c2c(c3cc(Nc4ccnc(Cl)c4Cl)ccc31)N[C@@H](C1CC1)C(F)(F)CO2` [compound 15, (S)-2-Cyclopropyl-10-((2,3-dichloropyridin-4-yl)amino)-3,3-difluoro-7-methyl-1,2,3,4-tetrahydro-[1,4]oxazepino[2,3-c]quinolin-6(7H)-one], at human BCL6 BTB domain, the “BCL6 TR-FRET pIC50 mean” value was 7.873. The IC90 on human BCL6 BTB domain turned out to be 109 nM; in data set [1] (HEK-293T, Table S2, read-out: BCL6 NanoBRET IC90 individual replicates), 796 nM. Also, the IC50 is 13 nM at human BCL6 BTB domain (setting [9]); 13.4 nM at human BCL6 BTB domain (supplement, read-out: BCL6 TR-FRET IC50 Geometric Mean); 68 nM in data set [1] (setting [11]); 106 nM and 43.5 nM and 71 nM in data set [1] (setting [12]); 68.9 nM in [1] (setting [8]). The “decrease in cellular potency compared to CCT372064” value in data set [1] (NanoBRET) worked out at 5 fold. Moreover, in [1] (Table S2), the “BCL6 NanoBRET pIC50 mean” value is on record as 7.1618. In data set [5] (pH 7.4, read-out: Measured logD7.4), the chromatographic logD came out at 3.2. In data set [6], the Papp A→B came to 9.1 ×10⁻⁶ cm/s. The efflux ratio in [6] was determined as 2.9. The same compound yielded a kinetic solubility at 20 h in data set [7] of 6 µM (≈ 2.8 µg/mL). The compound further gave an intrinsic clearance (microsomal CLint) at 0.5 h, 1 µM in data set [4] (female, CD1, mouse, liver microsomes, pH 7.4) of 24 µL/min/mg.

On to `C[C@H]1C[C@@H](O)CN(c2ncc(Cl)c(Nc3ccc4c(c3)c3c(c(=O)n4C)OCC(F)(F)[C@H](C4CC4)N3)n2)C1` [CCT373566], for which, on human BCL6 BTB domain (read-out: BCL6 TR-FRET IC50 Geometric Mean), the IC50 is 2.2 nM. In the data set with BCL6, the “MSD degrader assay [OCI-Ly1] Dmax” value is 92% and the DC50 was 0.7 nM. For the same compound, in data set [2], the “Aq. Sol.” value was 10 µM. For the same compound, in data set [3], the “CACO-2 A-B” value is 3.2e-06 cm/s and the “CACO-2 (ER)” value is reported as 13.

For “(2S)-10-((2-(3-acetyl-3,8-diazabicyclo[3.2.1]octan-8-yl)-5-chloropyrimidin-4-yl)amino)-2-cyclopropyl-3,3-difluoro-7-methyl-1,2,3,4-tetrahydro-[1,4]oxazepino[2,3-c]quinolin-6(7H)-one [compound 7]”, the “BCL6 TR-FRET pIC50 mean” value on human BCL6 BTB domain is 8.728. Further, the 90% effect concentration (IC90) at human BCL6 BTB domain was 13.7 nM; in [1] (setting [10]) it was 284 nM. Further, the 50% inhibitory concentration (IC50) on human BCL6 BTB domain (setting [9]) is 1.9 nM; in data set [1] (setting [11]) it was 41 nM; in [1] (setting [12]) it was 28.2 nM and 47.9 nM and 51.1 nM. Also, the “BCL6 NanoBRET pIC50 mean” value in data set [1] (Table S2) came out at 7.3871. Further, in [5], the “Measured logD7.4” value worked out at 2.5. In addition, in [4], the “CLint H/M/R” value was 50 μLmin^-1mg^-1.
